According to patent US9593108B2, “Compounds and methods for antiviral treatment” (PTC Therapeutics, Inc., priority 2009, dated 2017):

Experiments:
[1] = test system: HCV replicon RNA (GenBank Accession No. AJ242654); assay: HCV Replicon Assay (replicon RNA reduction and/or Fluc reporter signal); assay type: cell-based, Hepatitis C virus; conditions: Hepatitis C virus, 72 h, replicon-containing cells cultured with test compound for up to 3 days
Procedure, shortened: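 Bicistronic replicon-containing cells cultured with compound for up to 3 days, with interferon as positive control. Inhibition quantified by replicon RNA reduction and/or Fluc reporter signal; IC50 values generally derived from replicon RNA reduction.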

Compound | melting point | IC50 [1]
NC(=O)c1c(-c2ccc(S(=O)(=O)NC3(C(F)(F)F)CC3)cc2)n(C2CCC2)c2ncc(Cl)cc12 [Cpd 328, 5-chloro-1-cyclobutyl-2-(4-{[1-(trifluoromethyl)cyclopropyl]sulfamoyl}phenyl)-1H-pyrrolo[2,3-b]pyridine-3-carboxamide] | 271 to 272 °C | < 0.5 µM
COc1cnc2c(c1)c(C#N)c(-c1ncc(S(=O)(=O)NC(C)C)cn1)n2C1CCC1 [Cpd 49, 2-(3-cyano-1-cyclobutyl-5-methoxy-1H-pyrrolo[2,3-b]pyridin-2-yl)-N-(propan-2-yl)pyrimidine-5-sulfonamide] | 215 to 217 °C | < 0.5 µM
C[C@H](NS(=O)(=O)c1ccc(-c2c(C#N)c3cc(C(F)F)cnc3n2C2CCC2)nc1)C1CC1 [Cpd 458, 6-[3-cyano-1-cyclobutyl-5-(difluoromethyl)-1H-pyrrolo[2,3-b]pyridin-2-yl]-N-[(1S)-1-cyclopropylethyl]pyridine-3-sulfonamide] | 164 to 165 °C | < 0.5 µM
C[C@@H](NS(=O)(=O)c1ccc(-c2c(C#N)c3cc(Cl)cnc3n2CC2CC2)nc1)C(F)(F)F [Cpd 59, 6-[5-chloro-3-cyano-1-(cyclopropylmethyl)-1H-pyrrolo[2,3-b]pyridin-2-yl]-N-[(2R)-1,1,1-trifluoropropan-2-yl]pyridine-3-sulfonamide] | 224 to 226 °C | 0.5 to 2 µM
NC(=O)c1c(-c2ccc(S(=O)(=O)NC3(C(F)(F)F)CC3)cn2)n(C2CCC2)c2ncc(Cl)cc12 [Cpd 325, 5-chloro-1-cyclobutyl-2-(5-{[1-(trifluoromethyl)cyclopropyl]sulfamoyl}pyridin-2-yl)-1H-pyrrolo[2,3-b]pyridine-3-carboxamide] | 238 to 240 °C | < 0.5 µM
Cc1cnc2c(c1)c(C#N)c(-c1ccc(S(=O)(=O)N[C@@H](C)C(F)(F)F)cn1)n2-c1cc(C#N)ncn1 [Cpd 508, 6-[3-cyano-1-(6-cyanopyrimidin-4-yl)-5-methyl-1H-pyrrolo[2,3-b]pyridin-2-yl]-N-[(2S)-1,1,1-trifluoropropan-2-yl]pyridine-3-sulfonamide] | 120 to 122 °C | < 0.5 µM
N#Cc1c(-c2ccc(S(=O)(=O)NC3CCC3)cn2)n(C2CCC2)c2ncc(C(F)(F)F)cc12 [Cpd 302, 6-[3-cyano-1-cyclobutyl-5-(trifluoromethyl)-1H-pyrrolo[2,3-b]pyridin-2-yl]-N-cyclobutylpyridine-3-sulfonamide] | 197 to 199 °C | < 0.5 µM
CCc1cnc2c(c1)c(C#N)c(-c1ccc(S(=O)(=O)N[C@@H](C)C(F)(F)F)cc1)n2C1CCC1 [Cpd 155, 4-(3-cyano-1-cyclobutyl-5-ethyl-1H-pyrrolo[2,3-b]pyridin-2-yl)-N-[(2S)-1,1,1-trifluoropropan-2-yl]benzenesulfonamide] | 194 to 201 °C | < 0.5 µM
N#Cc1c(-c2ccc(S(=O)(=O)NC3CC3)cn2)n(C2CCC2)c2ncc(C3CC3)cc12 [Cpd 133, 6-(3-cyano-1-cyclobutyl-5-cyclopropyl-1H-pyrrolo[2,3-b]pyridin-2-yl)-N-cyclopropylpyridine-3-sulfonamide] | 169 to 174 °C | < 0.5 µM
Cc1cnc2c(c1)c(C#N)c(-c1ccc(S(=O)(=O)N[C@@H](C)C(F)(F)F)cn1)n2-c1ncc(Br)cn1 [Cpd 435, 6-[1-(5-bromopyrimidin-2-yl)-3-cyano-5-methyl-1H-pyrrolo[2,3-b]pyridin-2-yl]-N-[(2S)-1,1,1-trifluoropropan-2-yl]pyridine-3-sulfonamide] | 169 to 171 °C | 0.5 to 2 µM
C[C@H](NS(=O)(=O)c1ccc(-c2c(C#N)c3cc(O)cnc3n2C2CCC2)nc1)C(F)(F)F [Cpd 275, 6-(3-cyano-1-cyclobutyl-5-hydroxy-1H-pyrrolo[2,3-b]pyridin-2-yl)-N-[(2S)-1,1,1-trifluoropropan-2-yl]pyridine-3-sulfonamide] | 240 to 242 °C | < 0.5 µM
